Measurements reported in US7919101B2 (priority 2008, dated 2011).
Residues, ends and D or L forms follow the SMILES beside them.

Molecular target: gp41 six-helix bundle formation between N46 and C34-biotin (Human immunodeficiency virus type 1 group M subtype B, UniProt P04578)
Assay type: biochemical, HIV-1
Conditions: triple combination of T-20, T-1249 and T-1144
Description: 6. Enzyme-linked Immunosorbent Assay (ELISA). […] The plate was then incubated for 30 min and added to horseradish peroxidase (HRP) labeled with streptavidin (SA-HRP) (ZYMED Laboratories). The plate was washed with the washing buffer (PBS containing 0.01% Tween 20) for 6 times to remove any unbound peptide. The substrate TMB was added sequentially. Absorbance at 450 nm (A450) was measured using an ELISA reader.

gp41 six-helix bundle formation between N46 and C34-biotin, sequence (P04578 536-581): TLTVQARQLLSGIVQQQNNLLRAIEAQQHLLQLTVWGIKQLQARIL

CC[C@H](C)[C@H](NC(=O)[C@H](C)NC(=O)[C@H](CCCNC(=N)N)NC(=O)[C@H](CC(=O)O)NC(=O)[C@H](Cc1c[nH]c2ccccc12)NC(=O)[C@H](C)NC(=O)[C@H](CCC(=O)O)NC(=O)[C@H](Cc1c[nH]c2ccccc12)NC(=O)[C@@H](NC(=O)[C@@H](NC(C)=O)[C@@H](C)O)[C@@H](C)O)C(=O)N[C@@H](C)C(=O)N[C@@H](CCC(=O)O)C(=O)N[C@@H](Cc1ccc(O)cc1)C(=O)N[C@@H](C)C(=O)N[C@@H](C)C(=O)N[C@@H](CCCNC(=N)N)C(=O)N[C@H](C(=O)N[C@@H](CCC(=O)O)C(=O)N[C@@H](C)C(=O)N[C@@H](CC(C)C)C(=O)N[C@@H](CC(C)C)C(=O)N[C@@H](CCCNC(=N)N)C(=O)N[C@@H](C)C(=O)N[C@@H](CC(C)C)C(=O)N[C@@H](CCC(N)=O)C(=O)N[C@@H](CCC(=O)O)C(=O)N[C@@H](CCC(N)=O)C(=O)N[C@@H](CCC(N)=O)C(=O)N[C@@H](CCC(=O)O)C(=O)N[C@@H](CCCCN)C(=O)N[C@@H](CC(N)=O)C(=O)N[C@@H](CCC(=O)O)C(=O)N[C@@H](C)C(=O)N[C@@H](C)C(=O)N[C@@H](CC(C)C)C(=O)N[C@@H](CCCNC(=N)N)C(=O)N[C@@H](CCC(=O)O)C(=O)N[C@@H](CC(C)C)C(N)=O)[C@@H](C)CC [T-1144] (Ac-TTWEAWDRAIAEYAARIEALLRALQEQQEKNEAALREL-NH2; N-terminus and C-terminus assumed)
Dose reduction, six-helix bundle formation: ~2 fold
